Assay type in all cases: in vivo, human
Data set [1] has as its system serum parathyroid hormone (PTH). Briefly: Phase 1B Dose-Finding Study in Postmenopausal Women: serum PTH in subjects with >60 pg/ml serum PTH at baseline. To be noted: after 28 days. The procedure: (§1) Reference is made to Zella et al., “Novel, Selective Vitamin D Analog Suppresses Parathyroid Hormone in Uremic Animals and Postmenopausal Women, Am J. Nephrology 2014; 39:476-483, May 17, 2014, the content of which is incorporated herein by reference in its entirety. Zella et al. discloses the results from a Phase 1B Dose-Finding Study in Postmenopausal Women in which the participants were administered various doses of 2MD and afterwards, serum parathyroid hormone (PTH) levels and serum calcium levels were monitored. In Zella et al.'s study, post-menopausal women were treated orally once daily with 2MD, calcitriol, or placebo for 28 days. Serum samples for PTH analysis were collected at baseline and 2, 7, 14, and 28 days after the first dose was administered.
In FIG. 1 of the present application, the results from the Phase 1B Dose-Finding Study in Postmenopausal Women from Zella et al. were plotted using only data from subjects that would be classified as having primary hyperparathyroidism or on a watch list for having primary hyperparathyroidism (i.e., subjects having >60 pg/ml serum PTH at baseline). In FIG. 1, the number of subjects administered each dose of 2MD, calcitriol, or placebo, consisted of the following: 0.05 μg 2MD-2 subjects, 0.11 μg 2MD-3 subjects; 0.17 μg 2MD-4 subjects; 0.44 μg 2MD-2 subjects; 0.5 μg calcitriol-1 subject; and placebo-1 subject. As indicated, PTH levels in the subjects administered 2MD at: doses of 0.11 μg, 0.17 μg, and 0.4 μg decreased over time at a level corresponding, to the dose of 2MD. After 28 days, a dose of 2MD of 0.11 μg, 0.17 μg, and. […] (See FIG. 2 and FIG. 3). In summary, 2MD could be administered orally at a daily dose of 0.11 μg-0.44 μg to treat subjects having primary hyperparathyroidism or at risk, for developing primary hyperparathyroidism.

The nature of data set [2]: Phase 1B Dose-Finding Study in Postmenopausal Women: serum calcium levels. The note with it: baseline vs 28 days, orally once daily, subjects with >60 pg/ml serum PTH at baseline. The procedure: as §1
(§2) In FIG. 1 of the present application, the results from the Phase 1B Dose-Finding Study in Postmenopausal Women from Zella et al. were plotted using only data from subjects that would be classified as having primary hyperparathyroidism or on a watch list for having primary hyperparathyroidism (i.e., subjects having >60 pg/ml serum PTH at baseline). In FIG. 1, the number of subjects administered each dose of 2MD, calcitriol, or placebo, consisted of the following: 0.05 μg 2MD-2 subjects, 0.11 μg 2MD-3 subjects; 0.17 μg 2MD-4 subjects; 0.44 μg 2MD-2 subjects; 0.5 μg calcitriol-1 subject; and placebo-1 subject. […]

Data set [3] is described as follows: Phase 1B Dose-Finding Study in Postmenopausal Women: serum phosphate levels. To be noted: baseline vs 28 days, orally once daily, subjects with >60 pg/ml serum PTH at baseline. The procedure:
as §1, §2

The structures appear in SMILES notation.

For `C=C1[C@H](O)CC(=C/C=C2\CCC[C@@]3(C)C2CCC3[C@@H](C)CCCC(C)(C)O)C[C@H]1O` (stereo partly drawn) [2MD, 2-methylene-19-nor-(20S)-1α,25-dihydroxyvitamin D3], the “increase in PTH” value in data set [1] (0.05 μg orally once daily) came to 16%. Further, the “decrease in PTH” value in data set [1] (0.11 μg orally once daily) is listed as −7%; in data set [1] (0.17 μg orally once daily), −31%; in data set [1] (0.4 μg orally once daily) it was −44%. Further, the “rise in serum calcium levels” value in data set [2] was “without increasing serum calcium”. Besides, in data set [3], the “rise in serum phosphate levels” value is listed as “without increasing serum calcium or serum phosphate”.
As to `C=C1/C(=C\C=C2/CCC[C@]3(C)[C@@H]([C@H](C)CCCC(C)(C)O)CC[C@@H]23)C[C@@H](O)C[C@@H]1O` [calcitriol, reference compound], the “increase in PTH” value in data set [1] (0.5 μg orally once daily) worked out at 15%.

The record behind these values is patent US10369161B2, “Use of 2-methylene-19-NOR-(20S)-1-alpha,25-dihydroxyvitamin D3 to treat primary hyperparathyroidism” (Wisconsin Alumni Research Foundation, priority 2014, dated 2019).
